# Source: patent US12503713B1, “Stabilization of tryptamines by denaturing enzymes, optimizing ionization states, and controlling confounding variables” (Convergent Health Sciences LLC, priority 2025, dated 2025)
# Key:
# [1] = spontaneous dephosphorylation of phosphoryloxytryptamines in phosphate buffers, one hour at 85 degrees Celsius, HPLC at 220 nanometers (Example 1)
# [2] = cited from earlier work
# [3] = tested on: phosphatase enzyme; test: colorimetric assay with a para-nitrophenyl phosphate substrate for residual phosphatase enzyme activity; format: biochemical, Psilocybe cubensis; details: supernatants of the extracts
# From the text: The denaturation of relevant phosphatase enzymes may be assessed, for example, by performing a colorimetric assay with a para-nitrophenyl phosphate substrate. Para-nitrophenyl phosphate comprises a phosphorylated aromatic, which is chemically similar to the phosphorylated indole of a phosphoryloxytryptamine. Colorimetric assays performed with a para-nitrophenyl phosphate substrate therefore provide suitable methods to assess […] that are relevant to this disclosure.
# (§1) The molecular weights of the analytes are determined by electrospray ionization mass spectroscopy (ESI-MS) operating in positive ion mode. The supernatants are also used for a colorimetric assay with a para-nitrophenyl phosphate substrate to identify residual phosphatase enzyme activity and for a colorimetric assay with a syringaldazine substrate to identify any residual laccase enzyme activity.
# [4] = tested on: laccase enzyme; test: colorimetric assay with a syringaldazine substrate for residual laccase enzyme activity; format: biochemical, Psilocybe cubensis; details: supernatants of the extracts
# From the text: The denaturation of relevant laccase enzymes may be assessed, for example, by performing a colorimetric assay with a laccase enzyme substrate such as syringaldazine or 2,2′-azino-bis(3-ethylbenzothiazoline-6-sulfonate) (ABTS). Syringaldazine comprises an aromatic structure with pendant hydroxyl groups, which is chemically similar to the indole of a hydroxytryptamine, and ABTS comprises a benzothiazoline, which is chemically similar to the indole of tryptamines generally. Colorimetric assays performed with a syringaldazine or ABTS substrate therefore provide suitable methods to assess laccase activity that are relevant to this disclosure.
# as §1
# [5] = cited from earlier work; remark: listed apart in the source
# [6] = pH of 2.0 relative to pH of 3.0
# [7] = pH of 7.0 relative to pH of 6.0
# [8] = pH of 3.0 relative to pH of 2.0
# [9] = pH of 6.0 relative to pH of 7.0
compound,measurement,setting,value
"NCCc1c[nH]c2cccc(O)c12 [4-HT, 3-(2-aminoethyl)-1H-indol-4-ol]",absorbance detected for the hydroxytryptamine,[1]; [6],greater absorbance
same,absorbance detected for the hydroxytryptamine,[1]; [7],greater absorbance
"C[N+](C)(C)CCc1c[nH]c2cccc(O)c12 [4-hydroxy-TMT, [2-(4-hydroxy-1H-indol-3-yl)ethyl]-trimethylazanium]",absorbance detected for the hydroxytryptamine,[1]; [6],greater absorbance
same,absorbance detected for the hydroxytryptamine,[1]; [7],greater absorbance
"O=C(O)Cc1c[nH]c2ccccc12 [Indole-3-acetic acid, indole-3-acetic acid]",solubility in water,[2],insoluble in water
"C[N+](C)(C)CCc1c[nH]c2cccc(OP(=O)(O)O)c12 [aeruginascin, [2-(4-phosphonooxy-1H-indol-3-yl)ethyl]-trimethylazanium]",absorbance detected for the phosphoryloxytryptamine,[1]; [8],Greater absorbance
same,absorbance detected for the phosphoryloxytryptamine,[1]; [9],Greater absorbance
N.N.O=S(=O)(O)O [ammonium sulfate],phosphatase enzyme activity relative to the water control,[3],significantly less
same,laccase enzyme activity relative to the water control,[4],significantly less
"CNCCc1c[nH]c2cccc(OP(=O)(O)O)c12 [baeocystin, [2-(4-phosphonooxy-1H-indol-3-yl)ethyl]-methylazanium]",absorbance detected for the phosphoryloxytryptamine,[1]; [8],Greater absorbance
same,absorbance detected for the phosphoryloxytryptamine,[1]; [9],Greater absorbance
"Cl.N=C(N)N [guanidinium, guanidinium chloride]",phosphatase enzyme activity relative to the water control,[3],significantly less
same,laccase enzyme activity relative to the water control,[4],significantly less
"NCCc1c[nH]c2cccc(OP(=O)(O)O)c12 [norbaeocystin, 2-(4-phosphonooxy-1H-indol-3-yl)ethylazanium]",absorbance detected for the phosphoryloxytryptamine,[1]; [8],Greater absorbance
same,absorbance detected for the phosphoryloxytryptamine,[1]; [9],Greater absorbance
"CNCCc1c[nH]c2cccc(O)c12 [norpsilocin, 3-[2-(methylamino)ethyl]-1H-indol-4-ol]",absorbance detected for the hydroxytryptamine,[1]; [6],greater absorbance
same,absorbance detected for the hydroxytryptamine,[1]; [7],greater absorbance
"CCCCCCCCO[C@@H]1O[C@H](CO)[C@@H](O)[C@H](O)[C@H]1O [octyl glucoside, octyl β-D-glucopyranoside]",phosphatase enzyme activity relative to the water control,[3],significantly less
same,laccase enzyme activity relative to the water control,[4],significantly less
"CN(C)CCc1c[nH]c2cccc(O)c12 [psilocin, 3-[2-(dimethylamino)ethyl]-1H-indol-4-ol]",absorbance detected for the hydroxytryptamine,[1]; [6],greater absorbance
same,absorbance detected for the hydroxytryptamine,[1]; [7],greater absorbance
CN(C)CCc1c[nH]c2cccc(OP(=O)(O)O)c12 [psilocybin],pKa of the azanium of psilocybin,[5]; conjugate acid of the amino,about 10.4
same,pKa of the dihydrogen phosphate of psilocybin (lowest pKa),[5]; first phosphate pKa,about 1.3
CCCCCCCCCCCCOS(=O)(=O)[O-].[Na+] [sodium dodecyl sulfate],phosphatase enzyme activity relative to the water control,[3],significantly less
same,laccase enzyme activity relative to the water control,[4],significantly less
OCCc1c[nH]c2ccccc12 [tryptophol],solubility in water,[2],insoluble in water
NC(N)=O [urea],phosphatase enzyme activity relative to the water control,[3],significantly less
same,laccase enzyme activity relative to the water control,[4],significantly less
Chitin,solubility in water,[2],insoluble in water
"polyethylene glycol 4-(2,4,4-trimethylpent-2-yl)phenyl ether [Triton X-100]",phosphatase enzyme activity relative to the water control,[3],significantly less
same,laccase enzyme activity relative to the water control,[4],significantly less
